{"source": "patent US20150018380A1", "about": "“Methods of Screening for Activation Deaminase Inhibitors Through Nuclear Import Inhibitors” (University of Rochester, priority 2012, published 2015)", "key": {"AID": {"target": "T1, AID (Homo sapiens, UniProt Q9GZX7)", "T1 construct": "expressed in transfected cells; host or cells: HeLa S3 (lentiviral transduction, pLVTHM, EF1-alpha promoter)", "T1 sequence (Q9GZX7 whole entry)": "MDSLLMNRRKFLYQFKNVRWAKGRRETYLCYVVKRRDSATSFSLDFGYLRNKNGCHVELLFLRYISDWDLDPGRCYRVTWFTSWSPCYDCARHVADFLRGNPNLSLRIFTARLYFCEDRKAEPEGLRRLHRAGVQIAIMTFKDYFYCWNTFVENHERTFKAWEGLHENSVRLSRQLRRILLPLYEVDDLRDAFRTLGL", "assay": "AID-EGFP-HeLa HCS assay LOPAC screen for inhibitors of AID nuclear import", "format": "cell-based", "method": "The LOPAC screen was performed using 20 μM of each compound in duplicate with a 3-hour incubation followed by LMB treatment.\nMaximum values, set to 100% corresponds to conditions of DMSO treated cells. Minimum values, set approximately to 0%, corresponds to conditions of only 200 ng/mL LMB treatment."}, "glucocorticoid receptor": {"tested_on": "glucocorticoid receptor", "details": "prior screen, cited from earlier work"}, "hnRNP A1": {"tested_on": "hnRNP A1", "assay": "LMB response in HEK293T cells transiently cotransfected with ACF-EGFP and mCherry-hnRNPA1: hnRNP A1", "format": "cell-based, human", "details": "LMB treatment; transiently transfected HEK293T", "text": "(§1) Wild type human ACF, hnRNP A1, and TALDO1 cDNAs are obtained from BlueHeron (NM_014576.2, NM_002136.2 and NM_006755.1) cDNAs for ACF and A1 were subcloned into pGEM3 and pIRES, respectively. Criteria used for transient transfection, validating protein expression and determining appropriate N/C ratio baselines are described elsewhere herein. Two counter screens for shuttling proteins, run in parallel enable the identification of AID-selective nuclear import inhibitors.\n(§2) Data presented herein show images from HEK293T cells 24 hr after being transiently cotransfected with ACF-EGFP and mCherry-hnRNPA1. FIG. 5G through FIG. 5I show images from a 384-well plate for EGFP-ACF, mCherry-hnRNPA1 and two color composite respectively. […] ACF and hnRNP A1 are selected because they shuttle using different mechanism than AID and because their function in the cell differs markedly from one another and from AID and H1. ACF binds to RNA through RNP domains that comprise three separate and centrally located RNA Recognition Motifs (RRM), required for ACF's function as an editing site recognition cofactor for APOBEC1 mRNA editing activity in the cell nucleus (Hintersteiner et al., 2010, ACS Chem Biol, 5(10): 967-79). […] ACF nuclear import is determined by a unique amino acid motif centrally located and a Cterminal, CRM1-dependent nuclear export signal (Chahine et al., 2009, Pharmacol Rev, 61(3): 358-72)."}, "histone H1": {"tested_on": "histone H1", "assay": "LMB response in HEK293T cells transiently co-transfected with AID-EGFP and mCherry-H1: H1", "format": "cell-based, human", "details": "LMB treatment", "procedure": "(§3) HEK293T cells in 40 μl were plated robotically into 384-well plates using a Multi-Drop (ThermoScientific) such that in 24 hours the cell density is approximately 60% confluency. EGFP-AID and mCherry-H1 plasmids were mixed at a 1:1 molar ratio in Turbofect reagent as per the manufacture's protocol (Fermentas) and dispensed from a trough into the 384-well HEK293T cell cultures with a Perkin Elmer Janus robot liquid handling system. Each well received 25 ng of total plasmid DNA and uniform dispersal of the transfection mixture was ensured by placing the plates on the Perkin Elmer plate mixer at the highest speed setting for 30 sec. Due to the small culture volume, there was no effect on cell attachment to the plates but was critical for uniform transfection. Ranges of both EGFP-AID: mCherry-H1 plasmid ratios and amount of total plasmid DNA required for transfection of cells in 384-well format were evaluated. For current plasmid stocks, a 1:1 plasmid ratio gave the most consistent expression of both proteins.\n(§4) Co-expression of other counter screen proteins and their response to LMB was evaluated using co-transfected HEK293T cells. […]"}, "AID-EGFP [1]": {"tested_on": "AID-EGFP", "assay": "LMB response in 293T cells transiently co-transfected with AID-EGFP and mCherry-TALDO1: AID", "format": "cell-based, human", "details": "LMB treatment; 293T co-transfected with mCherry-TALDO1", "procedure": "(§5) TALDO1 in pIRES was transiently co-transfected with AID-EGFP in 293T cells and fluorescence images taken 24 hours post-transfection. AID-EGFP was predominantly cytoplasmic while mCherry-TALDO1 was predominantly nuclear (FIG. 5P through FIG. 5R). […] It is concluded that co-expression of AID and TALDO1 is achievable and that the proteins have different N/C ratios even though they use the same importins."}, "AID-EGFP [2]": {"tested_on": "AID-EGFP", "assay": "LMB response in HeLa cell line stably expressing AID-EGFP and mCherry-TALDO1: AID", "format": "cell-based, human", "details": "LMB treatment; stable HeLa AID-EGFP/mCherry-TALDO1", "text": "(§6) A HeLa cell line stably expressing equivalent levels of AID-EGFP and mCherry-TALDO1 was established by transducing cells with a lentiviral vector encoding AID-EGFP. mCherry-TALDO1 was transfected/selected after the AID-EGFP line was sorted and selected. The cell line was then sorted for the co-expression of both proteins.\n(§7) FIG. 23 depicts the expression of AID-EGFP and mCherry-TALDO1, as measured by flow cytometry (FIG. 23A) and western blot (FIG. 23B). […] FIG. 24 depicts the localization of AID-EGFP and mCherry-TALDO1 in control treated cells and LMB treated cells. […] This cell line is then used in a simultaneous primary/counter screen for compounds that selectively alter AID import, while not affecting TALDO1 localization."}, "CRM1": {"target": "CRM1 (Homo sapiens, UniProt O14980)", "sequence (O14980 whole entry)": "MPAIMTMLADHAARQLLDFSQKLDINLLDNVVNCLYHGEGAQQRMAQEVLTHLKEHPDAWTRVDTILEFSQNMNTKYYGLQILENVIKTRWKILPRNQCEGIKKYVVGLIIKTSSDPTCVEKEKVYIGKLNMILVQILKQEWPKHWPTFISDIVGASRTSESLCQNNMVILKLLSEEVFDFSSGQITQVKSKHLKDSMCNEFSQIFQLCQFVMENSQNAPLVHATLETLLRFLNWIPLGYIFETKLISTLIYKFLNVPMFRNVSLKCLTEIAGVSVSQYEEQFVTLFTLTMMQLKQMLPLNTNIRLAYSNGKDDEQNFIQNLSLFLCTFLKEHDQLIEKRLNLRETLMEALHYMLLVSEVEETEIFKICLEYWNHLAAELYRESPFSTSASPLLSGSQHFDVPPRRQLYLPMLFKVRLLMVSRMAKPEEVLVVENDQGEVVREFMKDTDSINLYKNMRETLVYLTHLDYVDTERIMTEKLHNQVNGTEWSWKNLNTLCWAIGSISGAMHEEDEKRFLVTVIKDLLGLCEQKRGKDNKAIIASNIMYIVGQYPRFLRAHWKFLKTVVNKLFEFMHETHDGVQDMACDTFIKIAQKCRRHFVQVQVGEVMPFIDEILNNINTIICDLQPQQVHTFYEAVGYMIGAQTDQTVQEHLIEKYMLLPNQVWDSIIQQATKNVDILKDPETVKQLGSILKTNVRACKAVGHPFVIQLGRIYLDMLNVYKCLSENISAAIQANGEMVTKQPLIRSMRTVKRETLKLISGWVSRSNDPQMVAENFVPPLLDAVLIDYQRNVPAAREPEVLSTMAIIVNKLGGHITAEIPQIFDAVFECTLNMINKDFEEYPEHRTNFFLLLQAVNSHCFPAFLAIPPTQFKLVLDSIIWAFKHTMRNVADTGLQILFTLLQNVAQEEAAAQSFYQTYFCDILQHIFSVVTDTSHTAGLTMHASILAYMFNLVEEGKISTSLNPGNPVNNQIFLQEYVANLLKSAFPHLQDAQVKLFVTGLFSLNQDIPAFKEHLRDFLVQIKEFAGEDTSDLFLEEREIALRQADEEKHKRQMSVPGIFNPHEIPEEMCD", "details": "cited from earlier work"}, "AID-EGFP [3]": {"tested_on": "AID-EGFP", "assay": "LMB response in HEK293T cells transiently co-transfected with AID-EGFP and mCherry-H1: AID", "format": "cell-based, human", "procedure": "as §3, §4"}, "AID-EGFP [4]": {"tested_on": "AID-EGFP", "assay": "LMB / Ratjadone A response of AID-EGFP in stable HeLa AID-EGFP cells", "format": "cell-based, human", "details": "for AID-EGFP localization / nuclear retention: 100 ng/ml for 180 min", "text": "HCS assay development involves the selection of the most appropriate cellular model (Dudgeon et al., 2010, J. Biomol. Screen, 15: 766-782; Nickischer et al., 2006, Methods Enzymol, 414: 389-418; Williams et al., 2006, Methods Enzymol, 414: 364-89). In this regard, AID shuttling is not specific to B cells, making it possible to use a variety of cell types to study AID structure and function (Okazaki et al., 2002, Nature, 416: 340-5; Yoshikawa et al., 2002 Science, 296: 2033-6). However, the ability of LMB to induce quantitative AID nuclear retention was more uniform in HeLa cells (a finding has been independently confirmed by comparing the AID responses to LMB in transiently transfected HeLa, HEK293T, U2OS, A549, CaCo2, HepG2 and CHO cells). […] Consequently, AID-EGFP was subcloned from a pIRES vector into the lentiviral vector pLVTHM (Addgene) using the EF1-α promoter to drive moderate to low level expression. pLV-AID-EGFP psuedotyped virus was transduced into HeLa S3 cells (ATCC) that were live-cell flow sorted to obtain a homogenous population of fluorescent cells. Subcloning of a cell line was not thought to be necessary given the ability to threshold fluorescence in individual cells during high content screening. These cells have been maintained in culture with little or no loss of fluorescence for 2 months. HeLa AID-EGFP cells plated into 384-well plates at varying cell densities (1,250 to 10,000 cells per well) were simultaneously fixed with formaldehyde and counter stained with Hoechst and then imaged using both the IXU Ultra and ArrayScan VTI platforms with 10× and 20× objectives. Image quantification was performed with the multi-wavelength cell scoring (MWCS) & translocation enhanced (TE) image analysis modules and the molecular translocation (MT) image algorithm for the IXU Ultra and ArrayScan VTI, respectively. Based on image acquisition, 2,500 cells per well was determined ideal for either platform regardless of the objective. […] To establish the LMB response within the context of an HCS system and assess the assay parameters, cells were treated in 384-well format with varying doses (0.2 to 200 ng/ml) of either LMB or Ratjadone A (chemically related to LMB) for varying durations up to 200 min. […] There was a 4.5-fold difference between the nuclear to cytoplasmic (N/C) fluorescence ratio of LMB-treated cells and cells only treated with the solvent for LMB (0.5% methanol).\nFor the LOPAC high content screen (HCS), 2,500 AID-EGFP-HeLa cells were cultured per well on a 384-well plate. Cells were seeded and cultured overnight. Cells were exposed to 20 μM of test compound for 3 hours, followed by a 200 ng/mL LMB treatment for 3 hours. Experiments were run in duplicate. […]"}, "ACF": {"tested_on": "ACF", "assay": "LMB response in HEK293T cells transiently cotransfected with ACF-EGFP and mCherry-hnRNPA1: ACF", "format": "cell-based, human", "details": "LMB treatment; transiently transfected HEK293T", "text": "as §1, §2"}, "TALDO1": {"tested_on": "TALDO1", "assay": "LMB response in 293T cells transiently co-transfected with AID-EGFP and mCherry-TALDO1: TALDO1", "format": "cell-based, human", "details": "LMB treatment; 293T co-transfected with AID-EGFP", "procedure": "as §5"}, "mCherry-TALDO1": {"tested_on": "mCherry-TALDO1", "assay": "LMB response in HeLa cell line stably expressing AID-EGFP and mCherry-TALDO1: TALDO1", "format": "cell-based, human", "details": "LMB treatment; stable HeLa AID-EGFP/mCherry-TALDO1", "text": "as §6, §7"}, "[5]": {"details": "20 μM compound for 3 hours, then 200 ng/mL LMB for 3 hours, AID-EGFP-HeLa cells, 2,500 cells/well, duplicate"}}, "note": "Entries after “also recorded” stand apart in the source; their conditions may differ. Read-outs that look alike come from different tables or passages of the source."}
{"compound": "CC(C)(C)c1ccc(S(=O)(=O)/C=C/C#N)cc1", "note": "[Bay 11-7085]", "values": [{"measurement": "inhibition of AID nuclear import", "setting": "AID; [5]", "result": "greater than 50%"}, {"measurement": "nuclear import of the glucocorticoid receptor", "setting": "glucocorticoid receptor", "result": "inhibit the nuclear import of the glucocorticoid receptor"}, {"measurement": "nuclear import of the glucocorticoid receptor", "setting": "glucocorticoid receptor; listed as SID 53777289", "result": "inhibited nuclear import of the glucocorticoid receptor"}]}
{"compound": "Cc1c2ccncc2c(C)c2c1[nH]c1ccccc12", "note": "[Ellipticine]", "values": [{"measurement": "inhibition at 20 µM", "setting": "AID; [5]", "result": "> 50", "unit": "%"}]}
{"compound": "CCC(=C/[C@H](C)C/C=C/C(C)=C/[C@@H](C)C(=O)[C@@H](C)[C@H](O)[C@@H](C)C/C(C)=C/C(=O)O)/C=C/[C@@H]1OC(=O)C=C[C@@H]1C", "note": "[LMB, Leptomycin B]", "values": [{"measurement": "hnRNP A1 localization", "setting": "hnRNP A1", "result": "does not respond"}, {"measurement": "histone H1 localization", "setting": "histone H1", "result": "remained nuclear; also recorded: do not affect H1 nuclear localization"}, {"measurement": "AID-EGFP nuclear retention", "setting": "AID-EGFP [1]", "result": "significant nuclear retention of AID-EGFP; also recorded: selective redistribution of AID-EGFP"}, {"measurement": "AID-EGFP localization", "setting": "AID-EGFP [2]", "result": "shift localization from primarily cytoplasmic to primarily nuclear"}, {"measurement": "CRM1-mediated nuclear export of AID", "setting": "CRM1", "result": "inhibited"}, {"measurement": "AID-EGFP nuclear retention", "setting": "AID-EGFP [3]; 50 ng/ml LMB for 90 min, transiently transfected HEK293T", "result": "increased retention in their nuclei; also recorded: selective redistribution of AID-EGFP"}, {"measurement": "effect of increasing LMB above 50 ng/ml on EGFP-AID retained in the nucleus", "setting": "AID-EGFP [3]; transient system, HEK293T", "result": "did not increase the amount of EGFP-AID retained in the nucleus"}, {"measurement": "AID-EGFP localization / nuclear retention", "setting": "AID-EGFP [4]; HeLa AID-EGFP cells", "result": "maximal nuclear retention of AID-EGFP; also recorded: nuclear AID-EGFP localization"}, {"measurement": "nuclear localization of AID-EGFP", "setting": "AID-EGFP [4]; 200 ng/mL LMB for 3 hours, control AID-EGFP-HeLa cells without test compound", "result": "approximately 80%"}, {"measurement": "difference in nuclear to cytoplasmic (N/C) fluorescence ratio versus solvent (0.5% methanol) treated cells", "setting": "AID-EGFP [4]; HeLa AID-EGFP cells, 384-well", "result": 4.5, "unit": "fold"}, {"measurement": "ACF localization", "setting": "ACF", "result": "nuclear retention of ACF; also recorded: redistribution of ACF-EGFP"}, {"measurement": "nuclear mCherry fluorescence due to TALDO1", "setting": "TALDO1", "result": "did not noticeably affect"}, {"measurement": "mCherry-TALDO1 localization", "setting": "mCherry-TALDO1", "result": "remained nuclear"}]}
{"compound": "Cl.Cl.O=C1c2c(O)ccc(O)c2C(=O)c2c(NCCNCCO)ccc(NCCNCCO)c21", "note": "[M6545]", "values": [{"measurement": "fluorescence interference (false positive hit)", "setting": "AID; LOPAC screen, 20 μM", "result": "false positive autofluorescent"}]}
{"compound": "O=C1c2c(O)ccc(O)c2C(=O)c2c(NCCNCCO)ccc(NCCNCCO)c21", "note": "[Mitoxantrone]", "values": [{"measurement": "inhibition at 20 µM", "setting": "AID; [5]", "result": "> 50", "unit": "%"}]}
{"compound": "CN(C)S(=O)(=O)c1ccc2c(c1)/C(=C/c1cc3c([nH]1)CCCC3)C(=O)N2", "note": "[SU 6656]", "values": [{"measurement": "inhibition at 20 µM", "setting": "AID; [5]", "result": "> 50", "unit": "%"}]}
{"compound": "Ratjadone A", "values": [{"measurement": "AID-EGFP localization / nuclear retention", "setting": "AID-EGFP [4]; HeLa AID-EGFP cells", "result": "maximal nuclear retention of AID-EGFP; also recorded: nuclear AID-EGFP localization"}]}
